# Where two headings read alike, the source gives them in different places.
# Legend:
# Smurf-2 = Smurf-2 (Homo sapiens, UniProt Q9HAU4); assay: HECT E3 ligase autoubiquitinylation TR-FRET assay, Smurf-2; type: biochemical
# Description: (§1) To determine the HECT E3 ligase selectivity of the compounds, a panel of biochemical HECT E3 ligase autoubiquitinylation assays was employed (Smurf-1, Smurf-2, WWP1, WWP2, ITCH, Nedd4, Nedd4L and E6AP). The conjugation of ubiquitin to a protein substrate is a multistep process. In an initial ATP-requiring step, a thioester bond is formed between the carboxyl terminus of ubiquitin and an internal cystein residue of the ubiquitin-activating enzyme (E1). Activated ubiquitin is then transferred to a specific cystein residue of an ubiquitin-conjugating enzyme (E2). E2s donate ubiquitin to a HECT E3 ligase (E3) from which it is transferred to the substrate protein. HECT E3 ligases can auto-ubiquitinylate. This event is detected in the TR-FRET (Time-Resolved Fluorescence Resonance Energy Transfer) assay used in this panel. The reaction mix contains E1, E2, tagged-E3, biotin-conjugated ubiquitin, the compound and ATP in a suitable buffer and is incubated for 45 minutes to allow auto-ubiquitinylation of the E3 ligase. To measure the extent of ubiquitinylated E3 ligase by TR-FRET, the donor fluorophore Europium cryptate (Eu3+ cryptate), conjugated to streptavidin which subsequently binds to biotinylated ubiquitin, and the modified allophycocyanin XL665 (HTRF® primary acceptor fluorophore) coupled to a tag-specific antibody (HA, His or GST), which recognizes the respective E3 ligase fusion proteins, are added after the reaction is complete. When these two fluorophores are brought together by a biomolecular interaction (in this case ubiquitinylation of the E3 ligase), a portion of the energy captured by the Cryptate during excitation is released through fluorescence emission at 620 nm, while the remaining energy is transferred to XL665. This energy is then released by XL665 as specific fluorescence at 665 nm. Light at 665 nm is emitted only through FRET with Europium.
# (§2) Test and reference compounds are prepared at 180×[final] in 90% DMSO, and diluted 1:3 in 90% DMSO.
# (§3) For the biochemical assay panel, 50 nl of the test compounds, reference compounds and buffer/DMSO control are transferred to the respective wells of a 384-well white GREINER “SMALL VOLUME” PS plate. The assay panel is run at room temperature on a Biomek FX liquid handling workstation. To the assay plates containing 50 nl compound or control solutions in 90% DMSO, 4.5 ul of E3 ligase solution were added per well, followed by 4.5 ul of the pre-incubated E1/E2/Ub mix or the pre-diluted ubiquitin (LOW control). Plates are shaken vigorously after each addition. In this assay the compound concentrations range from 3 nM to 10 uM in an 8-point dose-response curve.
# (§4) After an incubation time of 45 min in the dark, the plates are transferred into the Pherastar fluorescence reader to measure the TR-FRET signal.
# Smurf-1 = Smurf-1 (Homo sapiens, UniProt Q9HCE7); assay: biochemical; type: biochemical; conditions: biochemical autoubiquitinylation TR-FRET, 45 min incubation, 8-point dose-response 3 nM to 10 uM
# Description: as §1, §2, §3, §4
# [1] = biochemical autoubiquitinylation TR-FRET, 45 min incubation, 8-point dose-response 3 nM to 10 uM, read-out: Smurf-2/IC50
# Sequence of Smurf-1 (Q9HCE7 whole entry): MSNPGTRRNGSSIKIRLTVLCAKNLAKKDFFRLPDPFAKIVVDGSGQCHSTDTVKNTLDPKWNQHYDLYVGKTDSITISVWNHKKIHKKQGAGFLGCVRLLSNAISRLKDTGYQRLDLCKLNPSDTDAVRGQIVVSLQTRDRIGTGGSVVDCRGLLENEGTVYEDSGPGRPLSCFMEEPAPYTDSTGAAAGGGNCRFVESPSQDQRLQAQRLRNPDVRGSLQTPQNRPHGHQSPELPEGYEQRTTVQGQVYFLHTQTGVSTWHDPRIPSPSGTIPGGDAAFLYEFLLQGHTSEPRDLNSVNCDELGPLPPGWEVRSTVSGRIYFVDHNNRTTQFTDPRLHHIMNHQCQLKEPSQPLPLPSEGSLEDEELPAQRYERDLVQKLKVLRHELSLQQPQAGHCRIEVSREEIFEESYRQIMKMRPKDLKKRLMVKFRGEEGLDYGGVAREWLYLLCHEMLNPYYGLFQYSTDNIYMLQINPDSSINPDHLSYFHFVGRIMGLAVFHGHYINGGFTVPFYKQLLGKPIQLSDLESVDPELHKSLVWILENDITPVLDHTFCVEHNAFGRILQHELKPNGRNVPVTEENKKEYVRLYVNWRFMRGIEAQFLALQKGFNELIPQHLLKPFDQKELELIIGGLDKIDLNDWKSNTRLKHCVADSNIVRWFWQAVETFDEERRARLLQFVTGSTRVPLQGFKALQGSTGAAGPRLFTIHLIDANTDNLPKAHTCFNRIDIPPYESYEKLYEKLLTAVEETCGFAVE
# Sequence of Smurf-2 (Q9HAU4 whole entry, species assumed): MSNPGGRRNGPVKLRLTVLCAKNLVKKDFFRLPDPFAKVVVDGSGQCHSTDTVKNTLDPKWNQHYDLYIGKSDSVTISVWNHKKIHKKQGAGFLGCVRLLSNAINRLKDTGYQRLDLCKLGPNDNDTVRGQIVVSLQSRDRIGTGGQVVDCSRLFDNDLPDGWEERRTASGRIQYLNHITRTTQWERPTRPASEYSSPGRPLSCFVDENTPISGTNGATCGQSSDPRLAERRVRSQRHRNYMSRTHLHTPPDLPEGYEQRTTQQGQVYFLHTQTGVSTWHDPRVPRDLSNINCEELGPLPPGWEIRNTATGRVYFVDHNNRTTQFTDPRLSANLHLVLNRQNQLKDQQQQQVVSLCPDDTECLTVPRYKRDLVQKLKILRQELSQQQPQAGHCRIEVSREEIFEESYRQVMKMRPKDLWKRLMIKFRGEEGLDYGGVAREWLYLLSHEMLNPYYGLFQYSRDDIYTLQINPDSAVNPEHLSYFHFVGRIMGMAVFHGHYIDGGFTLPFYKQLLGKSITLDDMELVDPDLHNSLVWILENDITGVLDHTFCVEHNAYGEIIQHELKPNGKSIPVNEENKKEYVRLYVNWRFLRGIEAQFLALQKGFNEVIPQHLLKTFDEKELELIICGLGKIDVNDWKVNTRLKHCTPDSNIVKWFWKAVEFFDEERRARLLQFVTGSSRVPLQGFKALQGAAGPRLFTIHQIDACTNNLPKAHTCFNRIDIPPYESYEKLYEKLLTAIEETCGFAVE
SMILES,IC50 (Smurf-2; [1]) [nM],IC50 (Smurf-1) [nM],IC50 (Smurf-2) [nM]
"Cc1c(NC(=O)c2noc3c2CCc2cc(CC(C)C)ccc2-3)c(=O)n(-c2ccccc2)n1C [Example 1, N-(1,5-Dimethyl-3-oxo-2-phenyl-2,3-dihydro-1H-pyrazol-4-yl)-7-isobutyl-4,5-dihydronaphtho[2,1-d]isoxazole-3-carboxamide]",5600,240,
"COc1ccc2c(c1)CCCc1c(C(=O)Nc3c(C)n(C)n(-c4ccc(F)cc4)c3=O)noc1-2 [Example 2, N-(2-(4-Fluorophenyl)-1,5-dimethyl-3-oxo-2,3-dihydro-1H-pyrazol-4-yl)-8-methoxy-5,6-dihydro-4H-benzo[3,4]cyclohepta[1,2-d]isoxazole-3-carboxamide]",8550,410,
"Cc1c(NC(=O)c2noc3c2CCCc2cc(OC(F)(F)F)ccc2-3)c(=O)n(-c2ccccc2F)n1C [Example 3, N-(2-(2-Fluorophenyl)-1,5-dimethyl-3-oxo-2,3-dihydro-1H-pyrazol-4-yl)-8-(trifluoromethoxy)-5,6-dihydro-4H-benzo[3,4]cyclohepta[1,2-d]isoxazole-3-carboxamide]",830,17,
"Cc1c(NC(=O)c2noc3c2CCSc2cc(OC(F)(F)F)ccc2-3)c(=O)n(C2CCCCC2)n1C [Example 4, N-(2-Cyclohexyl-1,5-dimethyl-3-oxo-2,3-dihydro-1H-pyrazol-4-yl)-8-(trifluoromethoxy)-4,5-dihydrobenzo[6,7]thiepino[4,5-d]isoxazole-3-carboxamide]",725,2.6,
"COc1ccc2c(c1)CCCCc1c(C(=O)Nc3c(C)n(C)n(C4CCCCC4)c3=O)noc1-2 [Example 5, N-(2-Cyclohexyl-1,5-dimethyl-3-oxo-2,3-dihydro-1H-pyrazol-4-yl)-9-methoxy-4,5,6,7-tetrahydrobenzo[3,4]cycloocta[1,2-d]isoxazole-3-carboxamide]",8350,91.8,
"CCc1ccc2c(c1)CCc1c(C(=O)Nc3c(C)n(C)n(-c4ccccc4)c3=O)noc1-2 [Example 7, N-(1,5-dimethyl-3-oxo-2-phenyl-2,3-dihydro-1H-pyrazol-4-yl)-7-ethyl-4,5-dihydronaphtho[2,1-d]isoxazole-3-carboxamide]",,568,> 10000
"Cc1ccc(-n2c(=O)c(NC(=O)c3noc4c3CCc3cc(OC(C)C)ccc3-4)c(C)n2C)cc1 [Example 11, N-(1,5-dimethyl-3-oxo-2-(p-tolyl)-2,3-dihydro-1H-pyrazol-4-yl)-7-isopropoxy-4,5-dihydronaphtho[2,1-d]isoxazole-3-carboxamide]",,1420,> 10000
"CCc1ccc2c(c1)CCCc1c(C(=O)Nc3c(C)n(C)n(-c4ccc(F)cc4)c3=O)noc1-2 [Example 13, 8-ethyl-N-(2-(4-fluorophenyl)-1,5-dimethyl-3-oxo-2,3-dihydro-1H-pyrazol-4-yl)-5,6-dihydro-4H-benzo[3,4]cyclohepta[1,2-d]isoxazole-3-carboxamide]",7850,272,
"COc1ccc2c(c1)CCCc1c(C(=O)Nc3c(C)n(C)n(-c4ccc(C)cc4C)c3=O)noc1-2 [Example 22, N-(2-(2,4-dimethylphenyl)-1,5-dimethyl-3-oxo-2,3-dihydro-1H-pyrazol-4-yl)-8-methoxy-5,6-dihydro-4H-benzo[3,4]cyclohepta[1,2-d]isoxazole-3-carboxamide]",,495,> 10000
"COc1ccc2c(c1)CCCc1c(C(=O)Nc3c(C)n(C)n(-c4ccccc4Cl)c3=O)noc1-2 [Example 27, N-(2-(2-chlorophenyl)-1,5-dimethyl-3-oxo-2,3-dihydro-1H-pyrazol-4-yl)-8-methoxy-5,6-dihydro-4H-benzo[3,4]cyclohepta[1,2-d]isoxazole-3-carboxamide]",5800,125,
"COc1ccc2c(c1)CCCc1c(C(=O)Nc3c(C)n(C)n(-c4cccc(Cl)c4)c3=O)noc1-2 [Example 28, N-(2-(3-chlorophenyl)-1,5-dimethyl-3-oxo-2,3-dihydro-1H-pyrazol-4-yl)-8-methoxy-5,6-dihydro-4H-benzo[3,4]cyclohepta[1,2-d]isoxazole-3-carboxamide]",,660,> 10000
"COc1ccc2c(c1)CCCc1c(C(=O)Nc3c(C)n(C)n(-c4ccc(Cl)cc4)c3=O)noc1-2 [Example 29, N-(2-(4-chlorophenyl)-1,5-dimethyl-3-oxo-2,3-dihydro-1H-pyrazol-4-yl)-8-methoxy-5,6-dihydro-4H-benzo[3,4]cyclohepta[1,2-d]isoxazole-3-carboxamide]",,1060,> 10000
"CCn1c(C)c(NC(=O)c2noc3c2CCCc2cc(OC)ccc2-3)c(=O)n1-c1ccccc1Cl [Example 30, N-(2-(2-chlorophenyl)-1-ethyl-5-methyl-3-oxo-2,3-dihydro-1H-pyrazol-4-yl)-8-methoxy-5,6-dihydro-4H-benzo[3,4]cyclohepta[1,2-d]isoxazole-3-carboxamide]",6850,680,
"COc1ccc2c(c1)CCCc1c(C(=O)Nc3c(C)n(C)n(Cc4ccccc4)c3=O)noc1-2 [Example 32, N-(2-benzyl-1,5-dimethyl-3-oxo-2,3-dihydro-1H-pyrazol-4-yl)-8-methoxy-5,6-dihydro-4H-benzo[3,4]cyclohepta[1,2-d]isoxazole-3-carboxamide]",,695,> 10000
"COc1ccc2c(c1)CCCc1c(C(=O)Nc3c(C)n(C)n(C4CCCC4)c3=O)noc1-2 [Example 34, N-(2-cyclopentyl-1,5-dimethyl-3-oxo-2,3-dihydro-1H-pyrazol-4-yl)-8-methoxy-5,6-dihydro-4H-benzo[3,4]cyclohepta[1,2-d]isoxazole-3-carboxamide]",9500,29.2,
"COc1ccc2c(c1)CCCc1c(C(=O)Nc3c(C)n(C)n(C4CCCCC4)c3=O)noc1-2 [Example 35, N-(2-cyclohexyl-1,5-dimethyl-3-oxo-2,3-dihydro-1H-pyrazol-4-yl)-8-methoxy-5,6-dihydro-4H-benzo[3,4]cyclohepta[1,2-d]isoxazole-3-carboxamide]",1050,5.9,
"COc1ccc2c(c1)CCCc1c(C(=O)Nc3c(C)n(C)n(CC4CCCCC4)c3=O)noc1-2 [Example 37, N-(2-(cyclohexylmethyl)-1,5-dimethyl-3-oxo-2,3-dihydro-1H-pyrazol-4-yl)-8-methoxy-5,6-dihydro-4H-benzo[3,4]cyclohepta[1,2-d]isoxazole-3-carboxamide]",,1040,> 10000
"COc1ccc2c(c1)CCCc1c(C(=O)Nc3c(C(F)(F)F)n(C)n(-c4ccccc4)c3=O)noc1-2 [Example 38, 8-methoxy-N-(1-methyl-3-oxo-2-phenyl-5-(trifluoromethyl)-2,3-dihydro-1H-pyrazol-4-yl)-5,6-dihydro-4H-benzo[3,4]cyclohepta[1,2-d]isoxazole-3-carboxamide]",,865,> 10000
"Cc1c(NC(=O)c2noc3c2CCCc2cc(OC(F)(F)F)ccc2-3)c(=O)n(-c2ccccc2)n1C [Example 39, N-(1,5-dimethyl-3-oxo-2-phenyl-2,3-dihydro-1H-pyrazol-4-yl)-8-(trifluoromethoxy)-5,6-dihydro-4H-benzo[3,4]cyclohepta[1,2-d]isoxazole-3-carboxamide]",5550,200,
"Cc1c(NC(=O)c2noc3c2CCCc2cc(OC(F)(F)F)ccc2-3)c(=O)n(Cc2ccccc2F)n1C [Example 43, N-(2-(2-fluorobenzyl)-1,5-dimethyl-3-oxo-2,3-dihydro-1H-pyrazol-4-yl)-8-(trifluoromethoxy)-5,6-dihydro-4H-benzo[3,4]cyclohepta[1,2-d]isoxazole-3-carboxamide]",,58,
"COc1ccc2c(c1)CCCc1c(C(=O)Nc3c(C)n(C)n(Cc4ccc(F)cc4)c3=O)noc1-2 [Example 57, N-(2-(4-fluorobenzyl)-1,5-dimethyl-3-oxo-2,3-dihydro-1H-pyrazol-4-yl)-8-methoxy-5,6-dihydro-4H-benzo[3,4]cyclohepta[1,2-d]isoxazole-3-carboxamide]",,2700,

# From patent US20170088546A1 (priority 2014, published 2017)
